Assay results taken from ChEMBL document CHEMBL1122719, “Steroids. 2. Synthesis of C-18 functionalized steroids via the Smith-Hughes route” (J Med Chem, 1984).

These compounds were tested against Estrogen receptor (Rattus norvegicus, UniProt P06211+Q62986) (assay: Equilibrium dissociation constant for rat uterine estrogen receptor binding [3H]estradiol).
Type: protein assay

SMILES	Kd [nM]
C#C[C@]1(O)CC[C@H]2[C@@H]3CCC4=CC(=O)CC[C@@H]4[C@H]3CC[C@@]21C [NORETHINDRONE]	0.63
OC[C@@]12CCC[C@H]1[C@@H]1CCc3cc(O)ccc3[C@H]1CC2	310

These compounds were tested against T1, Progesterone receptor (Gallus gallus) (UniProt P07812) (assay: In vitro displacement of progesterone from oviduct progesterone receptor relative to progesterone).
T1 sequence (whole entry): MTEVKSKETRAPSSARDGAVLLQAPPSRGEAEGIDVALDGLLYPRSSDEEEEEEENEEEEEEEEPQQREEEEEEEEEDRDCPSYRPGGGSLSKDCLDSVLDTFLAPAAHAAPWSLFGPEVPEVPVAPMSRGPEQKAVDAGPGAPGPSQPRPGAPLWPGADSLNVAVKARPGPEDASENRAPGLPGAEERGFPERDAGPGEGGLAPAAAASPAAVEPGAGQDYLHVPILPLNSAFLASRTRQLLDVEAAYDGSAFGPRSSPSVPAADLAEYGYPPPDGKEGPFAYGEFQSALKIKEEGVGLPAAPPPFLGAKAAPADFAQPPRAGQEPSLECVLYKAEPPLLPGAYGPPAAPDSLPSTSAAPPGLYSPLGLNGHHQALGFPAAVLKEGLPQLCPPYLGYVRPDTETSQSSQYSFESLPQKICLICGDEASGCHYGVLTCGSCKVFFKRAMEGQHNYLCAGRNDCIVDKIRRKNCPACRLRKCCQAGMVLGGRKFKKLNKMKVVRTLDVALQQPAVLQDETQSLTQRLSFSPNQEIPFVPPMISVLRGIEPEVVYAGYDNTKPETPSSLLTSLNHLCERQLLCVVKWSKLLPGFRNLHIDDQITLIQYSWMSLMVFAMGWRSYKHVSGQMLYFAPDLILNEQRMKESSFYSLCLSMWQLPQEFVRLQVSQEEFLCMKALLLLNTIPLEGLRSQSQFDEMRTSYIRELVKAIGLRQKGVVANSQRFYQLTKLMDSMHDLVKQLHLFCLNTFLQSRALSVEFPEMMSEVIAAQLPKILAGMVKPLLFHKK

SMILES	Relative binding affinity [%]
C#C[C@@H](O)C12CCCC1C1CCC3=CC(=O)CC[C@@H]3C1CC2.C#C[C@H](O)C12CCCC1C1CCC3=CC(=O)CC[C@@H]3C1CC2 (stereo partly drawn)	3.1
C#C[C@]1(O)CC[C@H]2[C@@H]3CCC4=CC(=O)CC[C@@H]4[C@H]3CC[C@@]21C [NORETHINDRONE]	350
CC(=O)[C@H]1CC[C@H]2[C@@H]3CCC4=CC(=O)CC[C@]4(C)[C@H]3CC[C@]12C	100
CC(=O)OC(C(C)=O)[C@@]12CCC[C@H]1[C@@H]1CCC3=CC(=O)CC[C@@H]3[C@H]1CC2 (stereo partly drawn)	0.1
CC(=O)C[C@@]12CCC[C@H]1[C@@H]1CCC3=CC(=O)CC[C@@H]3[C@H]1CC2	2
C#C[C@@H](O)C12CCCC1C1CCC3=CC(=O)CC[C@@H]3C1CC2 (stereo partly drawn)	0.6
